# Reference: a melting point compilation (Tetko et al.; mined from patent text by program, amines drawn as free bases though some values may be those of a salt)
row,melting point [°C],SMILES
1,267,O=C1Nc2ccccc2C1(c1ccc(O)cc1)c1ccc(O)cc1
2,217 to 219,O=c1ccn(-c2cccc(C(F)(F)F)c2)nc1-c1conc1-c1ccccc1
3,106 to 108,CCCNC(=O)c1nc(-c2ccccc2)c(-c2ccc(=O)n(CC)n2)s1
4,242,O=C(O)c1cc(-n2c(-c3ccccc3)cc3c4ccccc4ccc32)ccc1O
5,199 to 200,Nc1nnc(-c2cccc(OC(F)(F)C(F)F)c2)c(N)n1
6,82 to 83,CCCCCCCCCCCCCCCCn1c2cc(Cl)ccc2c2ccc(Cl)cc21
7,204 to 205,Cc1ccc(OCc2c(F)cccc2Cl)c(NC(=S)Nc2ccc(Cl)cc2)n1
8,< 60,CC(=O)n1nc(C)c(Oc2cc(Cl)cc(C#N)c2)c1C
9,138 to 140,COc1ccc(C=CC(=O)C=Cc2ccc(OC)cc2OC)c(OC)c1
10,244 to 246,COc1ccc(C)cc1NC(=O)Nc1ccc(N2CCN(C(=O)Nc3ccc(N)cc3C(F)(F)F)CC2)cc1
11,206 to 207,COC(=O)C1=C(C)NC(C)=C(C(=O)OC)C1c1cc([N+](=O)[O-])ccc1OC/C=C/CCl
12,164,O=C(NC(=O)c1ccccc1Cl)Nc1ccc(Cl)c(C(F)(F)F)c1
13,177 to 179,Cc1ccc(-c2nn(-c3cccc(OC(F)(F)F)c3)c(N)c2C(N)=O)cc1
14,136 to 140,CC(C)(C)c1ccn(-c2ccc(C(=O)c3cccc4c3Nc3ncccc3CN4)c(C(F)(F)F)c2)n1
15,182 to 185,CSc1cccc(SC)c1S(=O)(=O)NC(C)(C)C
16,147 to 148,Cc1ccc(-c2ccc(S(N)(=O)=O)cc2)n1-c1ccc(F)cc1
17,138 to 140,CC(C)(Oc1ccc(OCc2nc(-c3ccc(C(C)(C)C)cc3)no2)cc1)C(=O)O
18,146 to 147,Nc1c(Br)cc(C(=O)CBr)cc1Br
19,155 to 157,O=C(Nc1ccc(F)cc1)NS(=O)(=O)C1CCCC1

row,melting point [°C],SMILES
1,204 to 205,CSc1nc(-c2ccccc2)n(-c2ccc(F)cc2)c(=O)c1C#N
2,148 to 149,CCn1nc(-c2c(-c3ccccc3)nn3ccc(OC)cc23)ccc1=O
3,229 to 230,COC(=O)C(O)CCNc1ncc(N)cc1N (centres undefined)
4,160,CCCC(CO)n1cnc(C(N)=O)c1 (centres undefined)
5,249 to 251,Cc1ccc2c(c1)Cc1c(C(=O)C(C#N)C(=O)Nc3ccccc3)nn(-c3ccccc3)c1-2 (centres undefined)
6,189 to 190,COc1cccc(C2CC(=O)N(c3ccnc(NC(=O)NCc4ccccn4)c3)C2)c1 (centres undefined)
7,217 to 219,CCn1cc(C(=O)NCc2ccc(Cl)cc2)c(=O)c2cc(C#CCO)sc21
8,140 to 142,COC(=O)C(N)C(C)(C)SSc1ccccc1C(=O)Nc1ccc(S(N)(=O)=O)cc1 (centres undefined)
9,130 to 133,CCCCC1CCc2c(OCc3ccc4ccccc4n3)cccc2C1O (centres undefined)
10,144 to 146,N#CN1CCC(c2nn(C(=O)c3ccccc3)c3ccccc23)CC1
11,140 to 142,CCNC(=O)C(=O)[C@H](Cc1ccccc1)NC(=O)[C@H](CC(C)C)NC(=O)OC1CCOCC1
12,> 200,N#Cc1c(N2CCc3ccccc3CC2)[nH]c(=S)[nH]c1=O
13,126 to 128,Cc1cc(Cc2cnc(NCCCCc3ncc(Br)cc3C)[nH]c2=O)cnc1C
14,136,C(=C\c1nc2ccccc2n1-c1ccccn1)/c1ccsc1
15,211 to 212,O=C(Oc1ccccc1)N1CCC2(CC1)SC(c1ccc(Cl)cc1)c1ccccc12 (centres undefined)
16,195,O=c1cc(-c2cccc(Cl)c2)c2cc(C(c3ccc(Cl)cc3)n3ccnc3)cc3c2n1CCC3 (centres undefined)
17,87,Cc1ccc(C)c(-c2nsc3ccccc23)c1
18,66.5 to 68.5,CC(C)(CCl)c1cc(Cl)nnc1Cl

row,SMILES,melting point [°C]
1,CN(C(=O)Oc1ccc(Cl)c(C(C)(C)C)c1)c1ccc(F)cc1,92 to 94
2,CC1CC(c2cc3c(F)cccc3s2)CCN1 (centres undefined),63 to 65
